“Also recorded” adds a separate entry of the source.
What was measured:
Assay type in all cases: biochemical
[1] = tested on: SARS-COV-2 total protease; assay: High throughput FRET screening of fluorogenic dipeptide substrates; details: for Relative fluorescence (change in the fluorescence signal in the presence of SARS-COV-2 protease): relative to FITC-Ahx-H-d-K(Dabcyl) = 100, ex 485 nm, em 535 nm; for Relative fluorescence (change in the fluorescence signal in the presence of SARS-COV-2 protease) / Fluorescence intensity increase relative to H-d peptide: 37° C.; for Fluorescence intensity increase relative to H-d peptide: H-d set as relative scale of 100%
[2] = tested on: MERS-COV protease (viral particles)
[3] = tested on: SARS-COV-2 live virus (protease); assay: Real-time fluorescence kinetics and detection limit of FRET substrate with live virus

Substance | Relative fluorescence (change in the fluorescence signal in the presence of SARS-COV-2 protease) [1] | other results
FITC-Ahx-E-d-K(Dabcyl) | 58 | 
FITC-Ahx-F-R-K(Dabcyl) | 82 | Fluorescence intensity increase relative to H-d peptide [1]: 82%
FITC-Ahx-H-d-K(Dabcyl) | 100 | Increase in the fluorescence intensity in the presence of MERS-COV virus [2]: less than 20%; Change in the fluorescence signal of the substrate [3]: no significant change; Fraction of the reaction completed within 30 minutes [3]: more than 50%; Time after which the fluorescence curve plateaus [3]: 1.5 h; Fluorescence intensity increase relative to H-d peptide [1]: 100%
FITC-Ahx-K-K-K(Dabcyl) | 62 | 
FITC-Ahx-K-d-K(Dabcyl) | 47 | 
FITC-Ahx-P-P-K(Dabcyl) | 55 | 
FITC-Ahx-R-d-K(Dabcyl) | 67 | 
FITC-Ahx-R-h-K(Dabcyl) [reference compound] |  | Increase in the fluorescence intensity in the presence of SARS-COV-2 protease ([1]; incubated at 37° C., after 3 hours): insignificant increase; also recorded: very minimum fluorescence change
